# Measurements from ChEMBL document CHEMBL6120963, “Discovery of Novel PROTAC SIRT6 Degraders with Potent Efficacy against Hepatocellular Carcinoma” (J Med Chem, 2024).
# The source made the active and inactive calls. No cut-off for these calls is given here.
# How the values were obtained:
# [1] = Toxicity in BALB/c nude mouse xenografted with human SK-HEP1 cells assessed as pathological damage in heart at 10 mg/kg treated for 28 to 30 days in presence of sorafenib by H and E staining based analysis; format: organism-based; conditions: in vivo, time 28-30 day
# SK-HEP1 [2] = experiment: Antitumor activity against human SK-HEP1 cells xenografted in BALB/c nude mouse at 10 mg/kg treated for 28 to 30 days relative to control; format: functional; conditions: time 28-30 day
# [3] = target: T1, Protein cereblon/NAD-dependent protein deacylase sirtuin-6 (Homo sapiens, UniProt Q8N6T7+Q96SW2); experiment: PROTAC activity at CRBN/SIRT6 in human SK-HEP1 cells assessed as disruption of CHD4 recruitment to DSB sites at 2.5 uM incubated for 36 hrs followed by sorafenib treatment for 4 hrs by Western blot analysis; format: cell-based; conditions: time 40.0 hrs
# [4] = target: T1, Protein cereblon/NAD-dependent protein deacylase sirtuin-6; experiment: PROTAC activity at CRBN/SIRT6 in human SK-HEP1 cells assessed as induction of SIRT6 degradation at 1 uM pretreated for 36 hrs followed by compound washout measured for 36 hrs by Western blot analysis; format: cell-based
# [5] = Toxicity in BALB/c nude mouse xenografted with human SK-HEP1 cells assessed as histopathological abnormalities in heart at 10 mg/kg treated for 28 to 30 days in presence of sorafenib by H and E staining based analysis; format: organism-based; conditions: in vivo, time 28-30 day
# SK-HEP1 [6] = experiment: Effect of CDK15 mRNA expression in human SK-HEP1 cells at 2.5 uM incubated for 36 hrs by RNA sequencing analysis; format: functional, cell-based
# SK-HEP1 [7] = experiment: Downregulation of CCPG1 expression in human SK-HEP1 cells at 2.5 uM incubated for 36 hrs in presence of MG132; format: functional, cell-based
# [8] = target: T1, Protein cereblon/NAD-dependent protein deacylase sirtuin-6; experiment: PROTAC activity at CRBN/SIRT6 in human SK-HEP1 cells assessed as reduction in fluorescence intensity of SIRT6 labeling incubated for about 36 hrs by immunofluorescence based analysis; format: cell-based
# SK-HEP1 [9] = experiment: Effect of ABI3BP mRNA expression in human SK-HEP1 cells at 2.5 uM incubated for 36 hrs by RNA sequencing analysis; format: functional, cell-based
# SK-HEP1 [10] = experiment: Downregulation of FBXO44 expression in human SK-HEP1 cells at 2.5 uM incubated for 36 hrs in presence of MG132; format: functional, cell-based
# [11] = Toxicity in BALB/c nude mouse xenografted with human SK-HEP1 cells assessed as pathological damage in spleen at 10 mg/kg treated for 28 to 30 days by H and E staining based analysis; format: organism-based; conditions: in vivo, time 28-30 day
# [12] = Toxicity in BALB/c nude mouse xenografted with human SK-HEP1 cells assessed as pathological damage in lungs at 10 mg/kg treated for 28 to 30 days by H and E staining based analysis; format: organism-based; conditions: in vivo, time 28-30 day
# SK-HEP1 [13] = experiment: Effect of SIRT6 mRNA expression in human SK-HEP1 cells at 2.5 uM incubated for 36 hrs by RT-qPCR analysis; format: functional, cell-based
# SK-HEP1 [14] = experiment: Downregulation of NAIF1 expression in human SK-HEP1 cells at 2.5 uM incubated for 36 hrs in presence of MLN4924; format: functional, cell-based
# SK-HEP1 [15] = experiment: Downregulation of FBXO44 expression in human SK-HEP1 cells at 2.5 uM incubated for 36 hrs in presence of MLN4924; format: functional, cell-based
# SK-HEP1 [16] = experiment: Effect of H2BC21 mRNA expression in human SK-HEP1 cells at 2.5 uM incubated for 36 hrs by RNA sequencing analysis; format: functional, cell-based
# [17] = target: T1, Protein cereblon/NAD-dependent protein deacylase sirtuin-6; experiment: PROTAC activity at CRBN/SIRT6 in human Huh-7 cells assessed as hook effect at 5 uM incubated for 36 hrs by Western blot analysis; format: cell-based
# SK-HEP1 [18] = experiment: Downregulation of ALDOB expression in human SK-HEP1 cells at 2.5 uM incubated for 36 hrs; format: functional, cell-based
# SK-HEP1 [19] = experiment: Cytotoxicity against human SK-HEP1 cells incubated for 72 hrs by CCK8 assay; format: functional, cell-based; conditions: SK-HEP1, 72 h
# [20] = Toxicity in BALB/c nude mouse xenografted with human SK-HEP1 cells assessed as histopathological abnormalities in spleen at 10 mg/kg treated for 28 to 30 days under irradiation (3 Gy) by H and E staining based analysis; format: organism-based; conditions: in vivo, time 28-30 day
# SK-HEP1 [21] = experiment: Antitumor activity against human SK-HEP1 cells xenografted in BALB/c nude mouse assessed as tumor growth suppression at 10 mg/kg treated for 28 to 30 days; format: functional, organism-based; conditions: time 28-30 day
# [22] = target: T1, Protein cereblon/NAD-dependent protein deacylase sirtuin-6; experiment: PROTAC activity at CRBN/SIRT6 in human SK-HEP1 cells assessed as hook effect upto 5 uM incubated for 36 hrs by Western blot analysis; format: cell-based
# Huh-7 [23] = experiment: Effect on SIRT1 expression in human Huh-7 cells at 0.002 to 1 uM incubated for 36 hrs by Western blot analysis; format: functional, cell-based; conditions: dose 0.002-1 µM
# [24] = target: T1, Protein cereblon/NAD-dependent protein deacylase sirtuin-6; experiment: PROTAC activity at CRBN/SIRT6 in human SK-HEP1 cells assessed as induction of SIRT6 degradation at 2.5 uM incubated for 36 hrs by Western blot analysis; format: cell-based
# SK-HEP1 [25] = experiment: Effect of SIRT7 mRNA expression in human SK-HEP1 cells at 2.5 uM incubated for 36 hrs by RT-qPCR analysis; format: functional, cell-based
# [26] = target: T1, Protein cereblon/NAD-dependent protein deacylase sirtuin-6; experiment: PROTAC activity at CRBN/SIRT6 in human SK-HEP1 cells assessed as induction of SIRT6 degradation at 0.02 to 5 uM incubated for 36 hrs by Western blot analysis; format: cell-based; conditions: dose 0.02-5 µM
# SK-HEP1 [27] = experiment: Inhibition of colony formation in human SK-HEP1 cells at 2.5 uM incubated for 10 to 14 days with replacement of medium containing compounds on every 3 days combined with irradiation (3 Gy) by crystal violet staining based analysis; format: functional, cell-based; conditions: time 10-14 day
# SK-HEP1 [28] = experiment: Effect on H3K18Ac expression in human SK-HEP1 cells at 0.002 to 1 uM incubated for 36 hrs by Western blot analysis; format: functional, cell-based; conditions: dose 0.002-1 µM
# [29] = target: T1, Protein cereblon/NAD-dependent protein deacylase sirtuin-6; experiment: PROTAC activity at CRBN/SIRT6 in human Huh-7 cells assessed as induction of SIRT6 degradation upto 10 uM incubated for 36 hrs by Western blot analysis relative to control; format: cell-based
# SK-HEP1 [30] = experiment: Induction of apoptosis in human SK-HEP1 cells at 2.5 uM incubated for 72 hrs in presence of sorafenib by Annexin V-FITC/PI staining based flow cytometry; format: functional, cell-based
# [31] = Toxicity in BALB/c nude mouse xenografted with human SK-HEP1 cells assessed as pathological damage in liver at 10 mg/kg treated for 28 to 30 days by H and E staining based analysis; format: organism-based; conditions: in vivo, time 28-30 day
# SK-HEP1 [32] = experiment: Downregulation of TEDC1 expression in human SK-HEP1 cells at 2.5 uM incubated for 36 hrs; format: functional, cell-based
# SK-HEP1 [33] = experiment: Downregulation of CCPG1 expression in human SK-HEP1 cells at 2.5 uM incubated for 36 hrs; format: functional, cell-based
# SK-HEP1 [34] = experiment: Induction of cell cycle arrest in human SK-HEP1 cells assessed as accumulation at G2/M phase incubated for 72 hrs by PI staining based flow cytometry; format: functional; conditions: dose 2.5-10 µM
# Huh-7 [35] = experiment: Inhibition of colony formation in human Huh-7 cells at 5 to 10 uM incubated for 10 to 14 days with replacement of medium containing compounds on every 3 days by crystal violet staining based analysis; format: functional, cell-based; conditions: dose 5-10 µM, time 10-14 day
# SK-HEP1 [36] = experiment: Effect of SIRT6 mRNA expression in human SK-HEP1 cells at 2.5 uM incubated for 36 hrs by RNA sequencing analysis; format: functional, cell-based
# T1 sequence (Q8N6T7 2-355 limits assumed): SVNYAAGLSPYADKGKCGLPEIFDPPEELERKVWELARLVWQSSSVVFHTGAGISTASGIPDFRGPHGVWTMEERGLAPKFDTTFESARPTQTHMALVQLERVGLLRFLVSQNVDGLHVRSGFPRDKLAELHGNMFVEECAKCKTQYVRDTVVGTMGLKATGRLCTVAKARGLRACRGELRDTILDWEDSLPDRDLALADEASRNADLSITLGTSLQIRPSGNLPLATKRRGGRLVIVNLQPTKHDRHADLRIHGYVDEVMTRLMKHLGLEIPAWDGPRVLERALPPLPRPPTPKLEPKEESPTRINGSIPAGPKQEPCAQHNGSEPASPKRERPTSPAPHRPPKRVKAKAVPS
# T1 sequence (Q96SW2 whole entry partner): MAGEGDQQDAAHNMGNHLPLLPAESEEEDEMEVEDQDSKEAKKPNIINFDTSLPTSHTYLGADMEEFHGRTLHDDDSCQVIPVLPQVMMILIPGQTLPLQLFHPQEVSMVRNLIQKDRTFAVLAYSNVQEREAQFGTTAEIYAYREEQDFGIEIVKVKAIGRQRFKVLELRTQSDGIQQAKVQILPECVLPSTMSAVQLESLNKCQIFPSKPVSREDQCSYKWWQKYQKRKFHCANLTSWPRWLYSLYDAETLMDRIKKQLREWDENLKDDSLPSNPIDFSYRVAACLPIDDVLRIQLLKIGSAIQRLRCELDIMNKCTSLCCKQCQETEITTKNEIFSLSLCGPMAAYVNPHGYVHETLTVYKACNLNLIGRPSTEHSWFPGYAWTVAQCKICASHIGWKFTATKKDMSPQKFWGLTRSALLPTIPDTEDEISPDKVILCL
smiles,measurement,setting,value
Nc1cc(N2CCN(CC3CCN(c4cc5c(cc4F)C(=O)N(C4CCC(=O)NC4=O)C5=O)CC3)CC2)ccc1[N+](=O)[O-] (stereo unspecified),Activity,[1],Non-toxic
same,T/C,SK-HEP1 [2],39.6%
same,Activity,[3],Active
same,Activity,[4],Not active; Sirt6 Level Slowly Recovered Within 24 Hrs After Treatment
same,Activity,[5],Non-toxic
same,Activity,SK-HEP1 [6],Active
same,Activity,SK-HEP1 [7],inactive
same,Activity,[8],Dose-dependent-effect
same,Activity,SK-HEP1 [9],Active
same,Activity,SK-HEP1 [10],inactive
same,Activity,[11],Non-toxic
same,Activity,[12],Non-toxic
same,Activity,SK-HEP1 [13],Active; Only Slight Downregulation Observed
same,Activity,SK-HEP1 [14],inactive
same,Activity,SK-HEP1 [15],inactive
same,Activity,SK-HEP1 [16],Active
same,Activity,[17],Active
same,Activity,SK-HEP1 [18],Active
same,IC50,SK-HEP1 [19],1510 nM
same,Activity,[20],Non-toxic
same,Activity,SK-HEP1 [21],Active
same,Activity,[22],inactive
same,Activity,Huh-7 [23],No effect
same,Activity,[24],Active
same,Activity,SK-HEP1 [25],No effect
same,Activity,[26],Active
same,inhibition,SK-HEP1 [27],Active; Exhibited Superior To Compound Alone
same,Activity,SK-HEP1 [28],No effect
same,Emax,[29],91.8%
same,Activity,SK-HEP1 [30],Active
same,Activity,[31],Non-toxic
same,Activity,SK-HEP1 [32],Active
same,Activity,SK-HEP1 [33],Active
same,Activity,SK-HEP1 [34],Dose-dependent-effect
same,inhibition,Huh-7 [35],Active
same,Activity,SK-HEP1 [36],No effect; The Mrna Level Did Not Markedly Change
